Reference: US12616713B2, “Methods for enhancing vascular density” (priority 2016, dated 2026)

Tests used:
[1] = test system: HAECs; test: Spheroid sprouting assay, HAECs; assay type: cell-based, human; conditions: VEGF 50 ng/mL
Description: ECs spheroids were generated as described previously (Korff and Augustin, 1998, J Cell Biol 143, 1341-1352). ECs (1000 cells per spheroid) were suspended in EGM-2 medium containing 20% methocel (viscosity: 4000 cps, Sigma) and seeded in non-adherent round-bottom 96-well plates (Sigma). Under these conditions all suspended cells contributed to the formation of a single spheroid. The spheroids were harvested after 24 h embedded into collagen gels. Sprouting was initiated by adding C2C12 CM or EBM-2 medium containing VEGF (50 ng/mL). NMN (0.5 mM), NaHS (0.1 mM), DAPT (20 μM, Cayman Chemical) or SU5416 (10 μM, Sigma) were added to the media wherever mentioned. Angiogenic activity was quantified by measuring the sprout length that had grown out of each spheroid analyzing 8-10 spheroids per group.

[2] = test system: HUVECs; test: Wound scratch assay, HUVECs; assay type: cell-based, human; conditions: 6 h
Description: ECs were cultured until forming a confluent monolayer and a scratch was made using a 200 μL pipette tip. Then the cells were allowed to migrate+/−NaHS (0.1 mM) and +/−NMN (0.5 mM) in EGM-2 medium for 6 hrs. Images were taken at the same location using a brightfield inverted microscope (Olympus 2467) every 2 h. The area of gap closure was calculated using ImageJ software. In some experiments, HUVECs were transduced with Scr or SIRT1 siRNA and cultured until forming a confluent monolayer. The cells were exposed to H2O2 (150 μM) for 1 h and a scratch was made using a 200 μL pipette tip. Then the cells were allowed to migrate with PBS (vehicle), NaHS (100 μM) and/or NMN (500 μM) in EGM-2 medium for 6 h. Images were taken at the same location using a brightfield inverted microscope (Olympus 2467) every 2 h. The area of gap closure was calculated using ImageJ software.

[3] = test system: HUVECs; test: Seahorse analysis of oxygen consumption rate; assay type: cell-based, human; conditions: NaHS 100 μM, NMN 500 μM
Description: Oxygen consumption rates were measured in accordance with manufacturer instructions using Seahorse XF96 analyzer (Seahorse Bioscience). Briefly, 40,000 HUVECs were plated onto XF96 plates and incubated overnight at 37° C./5% CO2. Next day, the media was replaced with XF assay media (DMEM), supplemented with glucose (1 g/L), glutamate (2 mM) and pyruvate (1 mM) and the pH was adjusted to 7.4. NaHS (100 μM) and/or NMN (500 μM) were added at the start of the experiment. Oxygen consumption measurements were made approximately every 8 minutes under basal conditions, and after the addition of oligomycin (1 μM). Experiments were replicated in six wells and averaged for each experimental condition.

[4] = test system: NAD^+; test: NAD+ levels in HUVECs; assay type: cell-based, human; conditions: increasing doses of NaHS, 24 hrs
Description: Levels of NAD^+ and NADH levels were measured in EC and muscle homogenates using commercially available kit (NAD-NADH Glo, Promega) according to manufacturer's instructions. Alternatively, NAD^+ levels in muscle and liver were measured by assay in-house developed method (Uddin et al., 2016, Front Pharmacol 7, 258). In brief, liver and gastrocnemius samples were homogenized in extraction buffer (10 mM Tris-HCl, 0.5% TritonX-100, 10 mM Nicotinamide, pH7.4) and then centrifuged (12,000×g for 5 min at 4° C.), after which an aliquot of supernatant was taken for protein quantification. After phenol:chloroform:isoamylalcohol (25:24:1) and chloroform extractions the supernatant was separated in two aliquots. One was used to measure total NAD. The other aliquot was acidified with HCl, and then neutralized with NaOH on ice to quantify NAD^+. Samples were mixed in a 96-well plate samples were mixed with alcohol dehydrogenase (ADH) at room temperature. Total NADH and NAD^+ were quantified using a Bio-Rad Imark microplate reader.

[5] = test system: SIRT1; test: SIRT1 protein levels in HUVECs (Western blot); assay type: cell-based, human; conditions: NaHS 0.1 mM and/or NMN 0.5 mM
Description: SDS-PAGE and Western blot analysis were performed according to standard procedures and detected with the ECL detection kit (Bio-rad, Australia). For Western blot analysis antibodies directed against SIRT1 (Sigma), SIRT3 (CST), SIRT6 (SantaCruz), eNOS (Cell Signaling Technology or CST), cleaved Notch1 (CST), total OXPHOS cocktail (Abcam), PGC-1α (Millipore), VEGF (Abcam), VEGFR2 (Abcam), phospho-VEGFR2 (Millipore), Actin (Cell Signaling Technology), Tubulin (Sigma), 14-3-3 (Cell Signaling Technology), GAPDH (SantaCruz) were used. Quantification of band intensities by densitometry was carried out using ImageJ software.

[6] = biological target: NAMPT (Homo sapiens, UniProt P43490); conditions: in vitro (Wang et al. 2014); cited from earlier work
Sequence of NAMPT (P43490 whole entry, species assumed): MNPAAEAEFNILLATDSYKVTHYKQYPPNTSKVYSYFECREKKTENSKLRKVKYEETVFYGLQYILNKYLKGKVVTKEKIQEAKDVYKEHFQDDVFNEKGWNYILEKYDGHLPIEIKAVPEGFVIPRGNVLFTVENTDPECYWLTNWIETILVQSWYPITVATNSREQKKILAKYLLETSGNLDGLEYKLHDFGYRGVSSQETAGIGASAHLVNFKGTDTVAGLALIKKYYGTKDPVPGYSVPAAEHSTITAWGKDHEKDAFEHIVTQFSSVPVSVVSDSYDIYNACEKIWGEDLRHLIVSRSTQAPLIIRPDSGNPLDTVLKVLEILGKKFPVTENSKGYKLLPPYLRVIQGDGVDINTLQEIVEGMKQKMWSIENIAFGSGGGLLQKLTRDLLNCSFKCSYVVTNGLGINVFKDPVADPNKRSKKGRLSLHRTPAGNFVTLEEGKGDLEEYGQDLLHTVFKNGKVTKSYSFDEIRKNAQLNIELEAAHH

[7] = biological target: T1, CD38 (Homo sapiens, UniProt P28907); conditions: in vitro (Esande et al. 2013); cited from earlier work
T1 sequence (P28907 1-300): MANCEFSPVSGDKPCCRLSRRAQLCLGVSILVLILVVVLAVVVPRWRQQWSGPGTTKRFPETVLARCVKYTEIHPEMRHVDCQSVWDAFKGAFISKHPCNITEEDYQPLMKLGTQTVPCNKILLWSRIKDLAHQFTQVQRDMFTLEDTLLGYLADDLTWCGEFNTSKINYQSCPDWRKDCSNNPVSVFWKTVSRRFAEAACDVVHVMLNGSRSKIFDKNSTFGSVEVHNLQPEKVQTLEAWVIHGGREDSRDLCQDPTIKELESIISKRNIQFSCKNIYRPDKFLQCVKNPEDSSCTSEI

For C[C@H](NC(=O)Cc1cc(F)cc(F)c1)C(=O)N[C@H](C(=O)OC(C)(C)C)c1ccccc1 [DAPT, N—[N-(3,5-Difluorophenacetyl)-L-alanyl]-S-phenylglycine t-butyl ester, reference compound], which “sprout length of spheroids” value ([1]; DAPT 20 μM, NT or SIRT1 siRNA) is on record?
Its value is “increased sprout length irrespective of SIRT1 levels”.

Which results are given for [Na+].[SH-] [NaHS, sodium hydrosulfide]?
cell migration in a scratch assay ([2]; NT or SIRT1 siRNA HUVECs, NaHS 0.1 mM, independent of VEGF but dependent on SIRT1): increased cell migration; cell migration (percentage of closed gaps) ([2]; Scr or SIRT1 siRNA HUVECs, H2O2 150 μM 1 h, NaHS 100 μM and/or NMN 500 μM): increased cell migration in a SIRT1-dependent manner; basal OCR [3]: lowered the basal OCR; intracellular NAD^+ levels in ECs [4]: raised intracellular NAD^+ levels in ECs in a dose dependent manner; SIRT1 protein levels [5]: increased SIRT1 protein levels

With OC(CNc1ccccc1)Cn1c2ccc(Br)cc2c2cc(Br)ccc21 (stereo not shown) [P7C3] as the compound, how does the “activity of NAMPT” value [6] read?
Its value is “enhances activity of NAMPT in vitro”.

With Cc1cc(C)c(/C=C2\C(=O)Nc3ccccc32)[nH]1 [SU5416, reference compound] as the compound, how does the sprouting of spheroids ([1]; SU5416 10 μM) read?
The sprouting of spheroids was “completely blocked sprouting”.

With O=c1cc(-c2ccc(O)cc2)oc2cc(O)cc(O)c12 [apigenin, 5,7-dihydroxy-2-(4-hydroxyphenyl)-4H-1-benzopyran-4-one] as the compound, how does the CD38 activity [7] read?
Its CD38 activity is “inhibitors of CD38 activity in vitro”.

Which CD38 activity [7] does the source give for O=c1c(O)c(-c2ccc(O)c(O)c2)oc2cc(O)cc(O)c12 [quercetin, 2-(3,4-dihydroxyphenyl)-3,5,7-trihydroxy-4H-chromen-4-one] here?
Its CD38 activity is “inhibitors of CD38 activity in vitro”.
